Experimental data reported in US20140194373A1, “COSMETIC USE OF […] A DERIVATIVE THEREOF IN THE PREVENTION AND/OR TREATMENT OF BODY ODOUR” (NESTEC S.A., priority 2011, published 2014).

Tested on: dermicidin
Assay: Differential proteomic analysis (iTRAQ) of stratum corneum varnish strips after oral supplementation, randomized double-blind study
Assay type: in vivo, women
Details: 500 mg of hesperidin per day, samples at D1 and D168, left leg, compared with placebo maltodextrin, n=33 per group
Description: The test product consists of hesperidin and is administered orally.
The active agent was tested alone in a randomized double-blind study.
66 women were divided into two groups, one of these groups testing maltodextrin (n=33 group A), the other testing hesperidin (n=33 group B).
The supplementation was 500 mg of hesperidin per day.
The evolution of various cutaneous markers was studied by proteomics on samples of isolated stratum corneum as indicated hereinbelow.
A sample is taken at times D1 and D168 with varnish strips in order to remove only part of the stratum corneum, i.e. at most the first 4 to 5 layers of stratum corneum.
To do this, a 41 μm Nylon filter gauze of Millipore NY41 type is applied to a predefined area of the left leg. […]
These skin samples (varnish strips of stratum corneum) were then analysed by proteomics by means of an “isobaric marking” technique to evaluate the expression of the protein(s) under study. […]
The marked peptides are detected by mass spectrometry with the intrinsic mass of the peptide +145 Da, originating from the reagent. In the peptide fragmentation step, the contribution of each of the reagents is assessed by the release of ions (fragments) having different specific masses. […]

With `COc1ccc([C@@H]2CC(=O)c3c(O)cc(O[C@@H]4O[C@H](CO[C@@H]5O[C@@H](C)[C@H](O)[C@@H](O)[C@H]5O)[C@@H](O)[C@H](O)[C@H]4O)cc3O2)cc1O` [hesperidin, (S)-7-[[6-0-(6-deoxy-α-L-mannopyranosyl)-β-D-glucopyranosyl]oxy]-2,3-dihydro-5-hydroxy-2-(3-hydroxy-4-methoxyphenyl)-4H-1-benzopyran-4-one] the “expression of dermicidin in stratum corneum” value was “significantly stimulates the expression of dermicidin”.
